From the NIST ThermoML archive (doi:10.1016/j.jct.2015.05.024)

Assay: xn = mol fraction of the nth substance listed
Details: 100 kPa, Liquid; for mass density: Vibrating tube method; for speed of sound: Frequency=5 MHz, Pulse-echo method

OCCOCCOCCO [triethylene glycol] + O
Details	mass density [kg/m3]	speed of sound [m/s]
313.15 K, x1 = 0.8975	1107.54	–
313.15 K, x1 = 0.9203	1107.65	–
313.15 K, x1 = 0.9514	1107.8	–
313.15 K, x1 = 0.9692	1107.89	–
313.15 K, x1 = 1	1108.03	–
318.15 K, x1 = 0.000584	–	1538.5
318.15 K, x1 = 0.002006	–	1542.9
318.15 K, x1 = 0.004375	–	1550
318.15 K, x1 = 0.01026	–	1566.6
318.15 K, x1 = 0.0107	1001.51	–
318.15 K, x1 = 0.01483	–	1578.5
318.15 K, x1 = 0.02047	1010.75	–
318.15 K, x1 = 0.0207	–	1592.6
318.15 K, x1 = 0.02817	–	1608.6
318.15 K, x1 = 0.0344	–	1620.5
318.15 K, x1 = 0.03972	1026.32	–
318.15 K, x1 = 0.04361	–	1635.9
318.15 K, x1 = 0.04979	1033.27	–
318.15 K, x1 = 0.05146	–	1647.1
318.15 K, x1 = 0.05903	–	1656.4
318.15 K, x1 = 0.06571	–	1663.4
318.15 K, x1 = 0.06996	1045.13	–
318.15 K, x1 = 0.07299	–	1670
318.15 K, x1 = 0.08294	–	1677.4
318.15 K, x1 = 0.09126	–	1682.2
318.15 K, x1 = 0.09424	1056.41	–
318.15 K, x1 = 0.09661	–	1684.8
318.15 K, x1 = 0.1018	–	1686.8
318.15 K, x1 = 0.1056	–	1688.1
318.15 K, x1 = 0.1135	–	1690.2
318.15 K, x1 = 0.1255	–	1692.2
318.15 K, x1 = 0.1394	–	1692.8
318.15 K, x1 = 0.1396	–	1692.8
318.15 K, x1 = 0.1432	–	1692.7
318.15 K, x1 = 0.1481	1073.27	–
318.15 K, x1 = 0.1521	–	1692.1
318.15 K, x1 = 0.1731	–	1689
318.15 K, x1 = 0.1931	–	1684.5
318.15 K, x1 = 0.2006	1082.92	–
318.15 K, x1 = 0.2076	–	1680.7
318.15 K, x1 = 0.2502	1088.64	–
318.15 K, x1 = 0.2511	–	1667.7
318.15 K, x1 = 0.2988	1092.38	–
318.15 K, x1 = 0.3044	–	1651.8
318.15 K, x1 = 0.3492	1095.09	–
318.15 K, x1 = 0.3572	–	1637.7
318.15 K, x1 = 0.3925	1096.8	–
318.15 K, x1 = 0.4142	–	1624.4
318.15 K, x1 = 0.4502	1098.53	–
318.15 K, x1 = 0.4877	1099.4	–
318.15 K, x1 = 0.4989	–	1607.6
318.15 K, x1 = 0.5004	1099.66	–
318.15 K, x1 = 0.5739	1100.92	–
318.15 K, x1 = 0.58	1101	–
318.15 K, x1 = 0.6427	–	1585.5
318.15 K, x1 = 0.6465	1101.82	–
318.15 K, x1 = 0.651	1101.87	–
318.15 K, x1 = 0.7008	1102.35	–
318.15 K, x1 = 0.7471	1102.73	–
318.15 K, x1 = 0.7677	1102.88	–
318.15 K, x1 = 0.7971	–	1571.3
318.15 K, x1 = 0.82	1103.22	–
318.15 K, x1 = 0.8623	1103.46	–
318.15 K, x1 = 0.8792	1103.55	–
318.15 K, x1 = 0.8865	–	1565.1
318.15 K, x1 = 0.8975	1103.64	–
318.15 K, x1 = 0.9203	1103.76	–
318.15 K, x1 = 0.9514	1103.9	–
318.15 K, x1 = 0.9641	–	1559.6
318.15 K, x1 = 0.9692	1103.99	–
318.15 K, x1 = 1	1104.13	1554.7
323.15 K, x1 = 0.0107	999.177	–
323.15 K, x1 = 0.02047	1008.26	–
323.15 K, x1 = 0.03972	1023.56	–
323.15 K, x1 = 0.04979	1030.37	–
323.15 K, x1 = 0.06996	1041.99	–
323.15 K, x1 = 0.09424	1053.04	–
323.15 K, x1 = 0.1481	1069.57	–
323.15 K, x1 = 0.2006	1079.07	–
323.15 K, x1 = 0.2502	1084.73	–
